These results are taken from patent US20220089593A1, “PDE9 INHIBITOR AND USE THEREOF” (TRANSTHERA SCIENCES (NANJING), INC., priority 2019, published 2022).

Sequence of human PDE9 (O76083 whole entry): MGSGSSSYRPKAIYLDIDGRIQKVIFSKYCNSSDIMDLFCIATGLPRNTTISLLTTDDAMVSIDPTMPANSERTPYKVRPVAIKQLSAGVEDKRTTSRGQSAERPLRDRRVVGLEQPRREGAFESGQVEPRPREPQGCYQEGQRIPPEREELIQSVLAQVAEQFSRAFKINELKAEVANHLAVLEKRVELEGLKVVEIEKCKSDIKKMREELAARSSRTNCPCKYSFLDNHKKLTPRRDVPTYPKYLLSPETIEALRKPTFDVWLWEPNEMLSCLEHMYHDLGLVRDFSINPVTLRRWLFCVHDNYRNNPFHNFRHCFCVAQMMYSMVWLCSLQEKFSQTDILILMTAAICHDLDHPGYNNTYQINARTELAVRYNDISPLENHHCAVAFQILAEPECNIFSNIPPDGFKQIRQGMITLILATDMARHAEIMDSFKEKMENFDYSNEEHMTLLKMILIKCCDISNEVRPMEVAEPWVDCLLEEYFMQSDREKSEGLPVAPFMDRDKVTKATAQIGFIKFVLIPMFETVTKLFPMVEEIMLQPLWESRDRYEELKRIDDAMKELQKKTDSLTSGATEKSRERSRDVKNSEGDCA

In one data set the target is T1, PDE9A2 enzyme (Homo sapiens, UniProt O76083).
T1 construct: purchased BPS 60090
T1 sequence (O76083 1-533 isoform O76083-2): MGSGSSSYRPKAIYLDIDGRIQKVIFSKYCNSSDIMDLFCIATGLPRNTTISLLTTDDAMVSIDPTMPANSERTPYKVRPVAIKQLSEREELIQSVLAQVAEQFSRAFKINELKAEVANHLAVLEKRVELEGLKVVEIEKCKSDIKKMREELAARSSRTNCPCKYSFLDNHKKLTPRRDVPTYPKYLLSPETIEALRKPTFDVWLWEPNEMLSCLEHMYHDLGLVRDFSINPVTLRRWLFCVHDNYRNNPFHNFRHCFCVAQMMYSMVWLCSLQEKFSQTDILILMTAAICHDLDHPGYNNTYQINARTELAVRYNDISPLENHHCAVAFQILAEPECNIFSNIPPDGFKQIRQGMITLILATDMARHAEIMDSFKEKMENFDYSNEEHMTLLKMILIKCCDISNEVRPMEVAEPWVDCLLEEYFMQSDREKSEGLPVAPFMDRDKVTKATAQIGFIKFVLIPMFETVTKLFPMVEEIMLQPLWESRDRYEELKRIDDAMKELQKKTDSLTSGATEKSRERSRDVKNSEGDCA
As to the kind of experiment: PDE9 enzymatic evaluation. It is filed as biochemical. The following applies: PDE9A2 enzyme (BPS), fluorescence reading 480 nm/535 nm, room temperature.
Method: Preparation of the compounds: Compounds were formulated into 10 mM compound stock solution in DMSO for long term storage.
Subsequently, 10 μL of the substrate mixture was added, and after centrifugation at 1000 rpm for 1 min, the resulting mixture was incubated at room temperature with oscillating for 30 min. Finally, stop solution was added to end the reaction, and the resulting reaction system was incubated at room temperature with oscillating for 60 min. In the maximum reading well (Max), the compound was replaced by solvent; in the minimum reading well (Min), the compound and the enzyme solution were replaced by solvent.
Detection: the fluorescence readings (F) at 480 nm/535 nm were detected using a microplate reader.
Calculation: The inhibition rate was calculated according to the following formula and IC50 was fitted using GraphPad Prism 5.0:
`COC1(C)CCN(c2c(C#N)c(=O)[nH]c3cnc(C(C)C)cc23)CC1` [Compound 163, 6-isopropyl-4-(4-methoxy-4-methylpiperidin-1-yl)-2-oxo-1,2-dihydro-1,7-naphthyridine-3-carbonitrile]: the midpoint of inhibition, the IC50, lay at 50 nM.

`COC1(C)CCN(c2c(C#N)c(=O)[nH]c3cccnc23)CC1` [Compound 165, 4-(4-methoxy-4-methylpiperidin-1-yl)-2-oxo-1,2-dihydro-1,5-naphthyridine-3-carbonitrile] returned an IC50 of 24 nM.

Compound `COC1(C)CCN(c2c(C#N)c(=O)[nH]c3ccc(C)nc23)CC1` [Compound 166, 4-(4-methoxy-4-methylpiperidin-1-yl)-6-methyl-2-oxo-1,2-dihydro-1,5-naphthyridine-3-carbonitrile] registered an IC50 of 19 nM.

Regarding `CCc1ccc2[nH]c(=O)c(C#N)c(N3CCC(C)(OC)CC3)c2n1` [Compound 167, 6-ethyl-4-(4-methoxy-4-methylpiperidin-1-yl)-2-oxo-1,2-dihydro-1,5-naphthyridine-3-carbonitrile], half-maximal inhibition (IC50) was put at 11 nM.

As for `COC1(C)CCN(c2c(C#N)c(=O)[nH]c3cnc(CO)cc23)CC1` [Compound 177, 6-(hydroxymethyl)-4-(4-methoxy-4-methylpiperidin-1-yl)-2-oxo-1,2-dihydro-1,7-naphthyridine-3-carbonitrile], the IC50 is 15 nM.

Take `CC(O)c1cc2c(N3CCC(C)(O)CC3)c(C#N)c(=O)[nH]c2cn1` (stereo not shown) [Compound 194, 4-(4-hydroxy-4-methylpiperidin-1-yl)-6-(1-hydroxyethyl)-2-oxo-1,2-dihydro-1,7-naphthyridine-3-carbonitrile]: the IC50 was 37 nM.

For the compound `CC1(C)CCN(c2c(C#N)c(=O)[nH]c3ccccc23)CC1` [Compound I-11, reference compound], the IC50 was 70 nM.

Tested on in another data set: not listed separately
As to the kind of experiment: Dog liver microsomal stability. It counts as in vitro ADME. The following applies: dog liver microsomes 0.5 mg protein/mL, compound 1 μM, β-NADPH 1 mM, 37° C. How it is done: Test samples: the compounds disclosed herein and the compound 1-8 of patent WO2017019723A1 (prepared by referring to the examples for synthesis in WO2017019723A1) having the following structural formula: […]
An appropriate amount of the compound was precisely weighed out and dissolved in DMSO to prepare a 5.0 mM stock solution. The 5.0 mM stock solution was diluted to 1.0 mM with DMSO, and then diluted with water to 10 μM compound working solution for later use (DMSO content in the reaction system: 0.1% v/v).
Vd=1/protein content in liver microsomes
In general terms: Liver microsomes are vesicles of endoplasmic reticulum, rich in cytochrome P450 enzymes.
Consider `COC1(C)CCN(c2c(C#N)c(=O)[nH]c3cnc([C@H](C)O)cc23)CC1` (single isomer, unassigned) [Compound B, 6-(1-hydroxyethyl)-4-(4-methoxy-4-methylpiperidin-1-yl)-2-oxo-1,2-dihydro-1,7-naphthyridine-3-carbonitrile], for which the half-life at 1 μM worked out at 14.4 h and the microsomal CLint at 1 μM was found to be 1.6 µL/min/mg.

`COC1(C)CCN(c2c(C#N)c(=O)[nH]c3ccc(C)nc23)CC1` [Compound 166, 4-(4-methoxy-4-methylpiperidin-1-yl)-6-methyl-2-oxo-1,2-dihydro-1,5-naphthyridine-3-carbonitrile] registered a half-life at 1 μM of 6.8 h and a microsomal CLint at 1 μM of 3.4 µL/min/mg.

In turn, `CCc1ccc2[nH]c(=O)c(C#N)c(N3CCC(C)(OC)CC3)c2n1` [Compound 167, 6-ethyl-4-(4-methoxy-4-methylpiperidin-1-yl)-2-oxo-1,2-dihydro-1,5-naphthyridine-3-carbonitrile] came in with a half-life at 1 μM of 2.32 h and a microsomal CLint at 1 μM of 10 µL/min/mg.

As to `COC1(C)CCN(c2c(C#N)c(=O)[nH]c3cnc(C(C)OP(=O)([O-])[O-])cc23)CC1.[Na+].[Na+]` (stereo not shown) [Compound 204], the half-life at 1 μM worked out at 8.25 h and the microsomal CLint at 1 μM was determined as 2.8 µL/min/mg.

Compound `N#Cc1c(N2CCCCCC2)c2ccccc2[nH]c1=O` [Compound I-8, reference compound] gave a half-life at 1 μM of 0.2 h and a microsomal CLint at 1 μM of 116 µL/min/mg.

The next data set has as its target human PDE9 (Homo sapiens, UniProt O76083).
Assay: not given
The following applies: background statement; cited from earlier work.
On to `CC(C)Cn1c(=O)n(C)c(=O)c2[nH]cnc21` [IBMX], for which the “inhibitory activity against PDE9” value is “no inhibitory activity or low inhibitory activity”.

For `CC(=O)Nc1ccc(-c2c[nH]c(=O)cn2)cc1` [SKF94120], the “inhibitory activity against PDE9” value is “no inhibitory activity or low inhibitory activity”.

For `OCCN(CCO)c1nc(N2CCCCC2)c2nc(N(CCO)CCO)nc(N3CCCCC3)c2n1` [dipyridamole], the “inhibitory activity against PDE9” value is reported as “no inhibitory activity or low inhibitory activity”.

`COc1ccc(C2CNC(=O)C2)cc1OC1CCCC1` (stereo not shown) [rolipram]: the “inhibitory activity against PDE9” value is “no inhibitory activity or low inhibitory activity”.

For the compound `CCOC(=O)C1=C[C@]2(CC)CCCN3CCc4c(n1c1ccccc41)[C@@H]32` [vinpocetine], the “inhibitory activity against PDE9” value is “no inhibitory activity or low inhibitory activity”.

For orientation: IC50 means the concentration that gives 50% inhibition. Read a high IC50 as a need for much substance. For orientation: half-life means the time needed for the level to fall by half in the phase considered. A higher half-life goes with slow loss. By microsomal CLint is commonly meant the rate of metabolic loss divided by the concentration.
